Read-outs that look alike come from different tables or passages of the source.
Experiments:
Format in all cases: physicochemical
[1] = Additional vacuum stability test, compounds sprayed on ITO slides with porcine brain tissue sections (Example 4a); settings: 21 hrs, about 35° C., vacuum up to about 1.4×10^−7 mbar
Method: In a separate experiment, frozen porcine brain tissue was sectioned into 10 μm slices using a Leica CM1950 clinical cryostate (Leica Biosystems, Germany) at a chamber temperature of −15° C. and a head temperature of −10° C. The tissue sections were thaw-mounted onto ITO glass slides and dried for 20 min under vacuum. The ITO glass object slides with tissue sections were then sealed and stored at −80° C. until analysis. Shortly before usage, the slides were taken out from the freezer and thawed at room temperature for 20 min. under vacuum.
Photo-caged MALDI Matrix Compounds of Examples Ex. 1.1 (DMNB-2,5-DHAP), 1.7 (CNB-2,5-DHAP), 1.8 (PMNB-2,5-DHAP) and 1.9 (DMNBC-2,5 DHAP) were dissolved (Ex. 1.1: 2.5 mg/mL in standard solvent according to table 2 above; Ex.: 1.7 and 1.8:2.5 mg/mL in acetonitrile/water 7:3 (v/v)+0.1% trifluoroacetic acid; Ex. 1.9: saturated solution <2.5 mg/mL in acetonitrile/water 8:2 (v/v)+0.1% trifluoroacetic acid) and sprayed onto the ITO slides as prepared above, including to the porcine brain tissue sections thereof (see above) with a HTX M5 sprayer (HTX Technologies, USA), spray parameters: temperature of spray nozzle/tray: 50° C./25° C., Spray nozzle velocity 1000 mm/min; nozzle height: 40 mm. Twenty passes with a flow rate of 60 μL/min and a pressure of 10 psi were sprayed. Optical images of the sprayed slides were then recorded before incubation and after incubation in an ultrafleXtreme™ MALDI TOF mass spectrometer (see above) for 21 hrs at about 35° C. and a vacuum of up to about 1.4×10^−7 mbar.

[2] = Dissolution of matrix compounds when preparing test solutions (Example 4a)
Method: Conventional MALDI matrix compounds 2,5-dihydroxybenzoic acid (2,5-DHB); 1,5-diaminonaphthalene (1,5-DAN); 3-hydroxycoumarin (3-HC); […] (2,5-DHAP); 2-mercaptobenzothiazole (2-MBT) and dithranol, respectively, were dissolved in acetonitrile/water (1:1 v/v) at a concentration of 5 mg/mL. […] 1 μL of each resulting solution was pipetted onto an ITO glass slide. After droplets had dried in the air, a first optical image (Aperio CS2 Scanner, Leica Biosystems, Wetzlar, Germany) of the whole ITO slides at 0 min. was recorded. The slides were then incubated at about 35° C. and a vacuum between about 3.5×10^−6 mbar (t=0 min.) and about 1.4×10^−7 mbar (t=892 min.) in an ultrafleXtreme™ MALDI TOF mass spectrometer (Bruker Daltonics) equipped with a Smartbeam-II Nd:YAG laser (355 nm) for time periods of 18 min., 80 min. and 892 min., respectively. After each time interval, additional optical images were taken of the slides. For 2,5-dihydroxyacetophenone (2,5-DHAP) a similar test was performed with a diluted solution (2.5 mg/mL). […]

[3] = Solubility tests with Photo-caged MALDI Matrix Compounds in solvents/solvent systems; settings: for solubility: thermodynamic from solid, read-out: solubility (completely dissolved at 2.5 mg/mL); for solubility in the solvents or solvent systems under review: overall rating from Table 2, Solvents 1-10
Method: Photo-caged MALDI Matrix Compounds according to the invention were prepared as described in Example 1 above and tested for solubility in different solvents (including solvent systems). The solvents (including solvent systems) used in this Example 2 are listed here below in Table 1:
Around 1 mg of each Photo-caged MALDI Matrix Compound was weighed into an Eppendorf tube using an analytical balance. The calculated amount of selected solvent was added into the tube to generate a solution at a maximal concentration of 2.5 mg/mL. An ultrasonic bath was used for max. 3 min. to accelerate the dissolving process.
The numbers of the compounds used in this Example 2 refer to the example numbers of Example 1 above. In Table 2 below, the mark “X” in a cell means, that the respective compound was completely dissolved in the respective solvent or solvent system in a concentration of 2.5 mg/mL.

[4] = organic solvent or mixture, Solvent 1: Acetonitrile
[5] = organic solvent or mixture, Solvent 2: Acetonitrile/water (v/v 90/10)
[6] = organic solvent or mixture, Solvent 3: Acetonitrile/water (v/v 90/10) + 0.1% trifluoroacetic acid
[7] = organic solvent or mixture, Solvent 4: Acetonitrile/water (v/v 85/15) + 0.1% trifluoroacetic acid
[8] = organic solvent or mixture, Solvent 5: Methanol/water (v/v 90/10)
[9] = Solvent 2: Acetonitrile/water (v/v 90/10)
[10] = Solvent 3: Acetonitrile/water (v/v 90/10) + 0.1% trifluoroacetic acid
[11] = Solvent 4: Acetonitrile/water (v/v 85/15) + 0.1% trifluoroacetic acid
[12] = Solvent 5: Methanol/water (v/v 90/10)
[13] = Solvent 6: Methanol/water (v/v 90/10) + 0.1% trifluoroacetic acid
[14] = Solvent 7: Methanol/water (v/v 90/10) + 50 mM (final conc.) NH4HCO3
[15] = Solvent 8: Methanol/water (v/v 85/15)
[16] = Solvent 9: Methanol/water (v/v 85/15) + 0.1% trifluoroacetic acid
[17] = Solvent 10: Methanol/water (v/v 85/15) + 50 mM (final conc.) NH4HCO3

solubility [3, 4] | solubility [3, 5] | solubility [3, 6] | solubility [3, 7] | solubility in the solvents or solvent systems under review [3] | solubility (completely dissolved at 2.5 mg/mL) [3, 12] | solubility (completely dissolved at 2.5 mg/mL) [3, 13] | solubility (completely dissolved at 2.5 mg/mL) [3, 14] | solubility (completely dissolved at 2.5 mg/mL) [3, 15] | solubility (completely dissolved at 2.5 mg/mL) [3, 16] | solubility (completely dissolved at 2.5 mg/mL) [3, 17] | further results | Compound
– | – | – | – | – | – | – | – | – | – | – | presence on ITO slides / porcine brain tissue sections after incubation under vacuum [1]: completely evaporated | CC(=O)c1cc(O)ccc1O [2,5-DHAP, 2,5-dihydroxyacetophenone, reference compound]
– | – | – | – | – | – | – | – | – | – | – | dissolution at a concentration of 5 mg/mL ([2]; acetonitrile/water (1:1 v/v), 5 mg/mL): not completely dissolved | Sc1nc2ccccc2s1 [2-MBT, 2-mercaptobenzothiazole, reference compound]
> 2.5 mg/mL | > 2.5 mg/mL | > 2.5 mg/mL | > 2.5 mg/mL | excellent solubility | – | – | – | – | – | – | solubility ([3]; methanol/water (v/v 85/15) + 50 mM NH4HCO3, organic solvent or mixture, Solvent 10: Methanol/water (v/v 85/15) + 50 mM (final conc.) NH4HCO3): > 2.5 mg/mL; solubility ([3]; methanol/water (v/v 90/10) + 50 mM NH4HCO3, organic solvent or mixture, Solvent 7: Methanol/water (v/v 90/10) + 50 mM (final conc.) NH4HCO3): > 2.5 mg/mL; solubility [3, 8]: > 2.5 mg/mL; solubility ([3]; organic solvent or mixture, Solvent 6: Methanol/water (v/v 90/10) + 0.1% trifluoroacetic acid): > 2.5 mg/mL; solubility ([3]; organic solvent or mixture, Solvent 8: Methanol/water (v/v 85/15)): > 2.5 mg/mL; solubility ([3]; organic solvent or mixture, Solvent 9: Methanol/water (v/v 85/15) + 0.1% trifluoroacetic acid): > 2.5 mg/mL | COc1cc(CNc2cccc3c(N)cccc23)c([N+](=O)[O-])cc1OC [Ex. 1.2, N^1-(4,5-dimethoxy-2-nitrobenzyl)naphthalene-1,5-diamine]
> 2.5 mg/mL | – | – | – | – | ◯ | ◯ | ◯ | ◯ | ◯ | ◯ | solubility (completely dissolved at 2.5 mg/mL) [3, 9]: ◯; solubility (completely dissolved at 2.5 mg/mL) [3, 10]: ◯; solubility (completely dissolved at 2.5 mg/mL) [3, 11]: ◯ | COc1cc(COc2cc3ccccc3oc2=O)c([N+](=O)[O-])cc1OC [Ex. 1.3, 3-((4,5-Dimethoxy-2-nitrobenzyl)oxy)-2H-chromen-2-one]
> 2.5 mg/mL | > 2.5 mg/mL | > 2.5 mg/mL | > 2.5 mg/mL | very good solubility | ◯ | ◯ | ◯ | ◯ | ◯ | ◯ | – | COc1cc(COc2cccc(O)c2C(C)=O)c([N+](=O)[O-])cc1OC [Ex. 1.4, 1-(2-((4,5-Dimethoxy-2-nitrobenzyl)oxy)-6-hydroxyphenyl)ethan-1-one]
> 2.5 mg/mL | > 2.5 mg/mL | > 2.5 mg/mL | > 2.5 mg/mL | very good solubility | – | ◯ | ◯ | ◯ | ◯ | ◯ | solubility [3, 8]: > 2.5 mg/mL | COc1cc(CSc2nc3ccccc3s2)c([N+](=O)[O-])cc1OC [Ex. 1.5, 2-((4,5-Dimethoxy-2-nitrobenzyl)thio)benzo[d]thiazole]
– | – | – | – | – | ◯ | ◯ | ◯ | ◯ | ◯ | ◯ | solubility (completely dissolved at 2.5 mg/mL) ([3]; Solvent 1: Acetonitrile): ◯; solubility (completely dissolved at 2.5 mg/mL) [3, 9]: ◯; solubility (completely dissolved at 2.5 mg/mL) [3, 10]: ◯; solubility (completely dissolved at 2.5 mg/mL) [3, 11]: ◯ | COc1cc(COc2cccc3c2C(=O)c2c(O)cccc2C3)c([N+](=O)[O-])cc1OC [Ex. 1.6, 1-((4,5-Dimethoxy-2-nitrobenzyl)oxy)-8-hydroxyanthracen-9(10H)-one]
– | – | – | – | – | – | – | – | – | – | – | concentration of saturated solution ([2]; acetonitrile/water 8:2 (v/v)+0.1% trifluoroacetic acid): < 2500 µg/mL; presence on ITO slides / porcine brain tissue sections after incubation under vacuum [1]: best results | COc1cc(COC(=O)Oc2ccc(O)c(C(C)=O)c2)c([N+](=O)[O-])cc1OC [Ex. 1.9, 3-Acetyl-4-hydroxyphenyl (4,5-dimethoxy-2-nitrobenzyl) carbonate]
